One block for each compound: values may come before it. The source made the active and inactive calls. No cut-off for these calls is given here.
Assays:
[1] = molecular target: T1, 14-3-3 protein epsilon (Homo sapiens) (UniProt P62258); experiment: Inhibition of recombinant 14-3-3epsilon protein (unknown origin) expression in Escherichia coli assessed as reduction in 14-3-3epsilon and histone H3 Ser10 interaction using human HT-29 cells lysates at 1 uM incubated for 1 hr by Western blotting based GST-pull down assay
T1 sequence (whole entry): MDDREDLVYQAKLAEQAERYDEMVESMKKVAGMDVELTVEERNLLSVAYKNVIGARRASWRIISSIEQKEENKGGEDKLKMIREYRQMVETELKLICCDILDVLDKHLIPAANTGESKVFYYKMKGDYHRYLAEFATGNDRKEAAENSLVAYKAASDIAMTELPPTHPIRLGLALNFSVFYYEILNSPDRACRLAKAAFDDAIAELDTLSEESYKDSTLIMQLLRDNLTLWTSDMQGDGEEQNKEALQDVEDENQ

[2] = tested on: HT-29; experiment: Inhibition of histone H3 Ser10 phosphorylation in human HT-29 cells at 10 uM incubated for 1 hr by Western blotting method; format: functional, cell-based
[3] = tested on: HT-29; experiment: Inhibition of 14-3-3epsilon protein expression in human HT-29 cells at 10 uM incubated for 1 to 4 hrs by Western blotting method; format: functional, cell-based
[4] = tested on: HT-29; experiment: Inhibition of c-Jun protein expression in human HT-29 cells at 10 uM incubated for 1 hr by Western blotting method; format: functional, cell-based
[5] = tested on: HT-29; experiment: Induction of cell cycle arrest in human HT-29 cells assessed as accumulation at G2/M phase at 10 uM incubated for 6 hrs by propidium iodide staining based FACS assay (reference value: 14.8%); format: functional
[6] = tested on: HT-29; experiment: Induction of cell cycle arrest in human HT-29 cells assessed as accumulation at subG1 phase at 10 uM incubated for 6 hrs by propidium iodide staining based FACS assay (reference value: 0.79%); format: functional
[7] = molecular target: MAP kinase p38 (Homo sapiens) (UniProt O15264+Q15759+Q16539+P53778); experiment: Inhibition of p38 phosphorylation in human HT-29 cells at 10 uM incubated for 15 to 120 mins by Western blotting method; format: cell-based
[8] = tested on: HT-29; experiment: Induction of cell cycle arrest in human HT-29 cells assessed as accumulation at S phase at 10 uM incubated for 24 hrs by propidium iodide staining based FACS assay (reference value: 21.94%); format: functional
[9] = molecular target: Mitogen-activated protein kinase 9 (Homo sapiens) (UniProt P45984); experiment: Inhibition of JNK2 phosphorylation in human HT-29 cells at 10 uM incubated for 15 to 120 mins by Western blotting method; format: cell-based
[10] = tested on: HT-29; experiment: Toxicity against human HT-29 cells assessed as effect on cell viability at 10 uM incubated for 24 hrs by MTT assay; format: cell-based; conditions: ht-29, 24 h
[11] = molecular target: T2, Aurora kinase C (Homo sapiens) (UniProt Q9UQB9); experiment: Inhibition of Aurora C kinase phosphorylation in human HT-29 cells at 10 uM incubated for 15 to 120 mins by Western blotting method; format: cell-based
T2 sequence (whole entry): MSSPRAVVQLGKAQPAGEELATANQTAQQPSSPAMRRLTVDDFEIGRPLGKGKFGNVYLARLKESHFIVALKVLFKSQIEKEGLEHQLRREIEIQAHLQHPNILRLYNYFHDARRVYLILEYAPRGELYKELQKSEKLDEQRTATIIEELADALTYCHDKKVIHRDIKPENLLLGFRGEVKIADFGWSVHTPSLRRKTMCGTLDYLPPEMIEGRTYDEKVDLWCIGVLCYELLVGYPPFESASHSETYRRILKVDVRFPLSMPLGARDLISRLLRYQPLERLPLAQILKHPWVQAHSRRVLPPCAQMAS

[12] = tested on: HT-29; experiment: Induction of cell cycle arrest in human HT-29 cells assessed as accumulation at G0/G1 phase at 10 uM incubated for 24 hrs by propidium iodide staining based FACS assay (reference value: 60.39%); format: functional
[13] = molecular target: Aurora kinase B (Homo sapiens) (UniProt Q96GD4); experiment: Inhibition of Aurora B kinase phosphorylation in human HT-29 cells at 10 uM incubated for 15 to 120 mins by Western blotting method; format: cell-based
[14] = tested on: HT-29; experiment: Induction of cell cycle arrest in human HT-29 cells assessed as accumulation at S phase at 10 uM incubated for 6 hrs by propidium iodide staining based FACS assay (reference value: 21.94%); format: functional
[15] = tested on: HT-29; experiment: Induction of cell cycle arrest in human HT-29 cells assessed as accumulation at subG1 phase at 10 uM incubated for 24 hrs by propidium iodide staining based FACS assay (reference value: 0.79%); format: functional
[16] = tested on: HT-29; experiment: Induction of HO-1 protein protein expression in human HT-29 cells at 10 uM incubated for 6 to 24 hrs by Western blotting method; format: functional, cell-based
[17] = tested on: HT-29; experiment: Induction of Nrf2 protein protein expression in human HT-29 cells at 10 uM incubated for 6 to 24 hrs by Western blotting method; format: functional, cell-based
[18] = tested on: HT-29; experiment: Induction of cell cycle arrest in human HT-29 cells assessed as accumulation at G2/M phase at 10 uM incubated for 24 hrs by propidium iodide staining based FACS assay (reference value: 14.8%); format: functional
[19] = molecular target: T3, Aurora kinase A (Homo sapiens) (UniProt O14965); experiment: Inhibition of Aurora A kinase phosphorylation in human HT-29 cells at 10 uM incubated for 15 to 120 mins by Western blotting method; format: cell-based
T3 sequence (whole entry): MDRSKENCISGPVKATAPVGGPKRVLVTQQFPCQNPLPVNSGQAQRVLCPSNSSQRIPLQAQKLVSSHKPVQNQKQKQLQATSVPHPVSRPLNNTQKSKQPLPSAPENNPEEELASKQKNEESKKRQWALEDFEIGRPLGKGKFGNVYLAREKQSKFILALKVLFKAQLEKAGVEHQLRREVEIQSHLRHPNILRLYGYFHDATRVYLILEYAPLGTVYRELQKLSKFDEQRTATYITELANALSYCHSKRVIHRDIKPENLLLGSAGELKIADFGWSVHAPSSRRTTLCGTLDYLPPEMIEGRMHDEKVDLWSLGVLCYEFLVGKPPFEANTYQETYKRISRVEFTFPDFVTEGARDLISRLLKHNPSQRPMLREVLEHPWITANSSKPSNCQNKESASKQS

[20] = molecular target: Mitogen-activated protein kinase 8 (Homo sapiens) (UniProt P45983); experiment: Inhibition of JNK1 phosphorylation in human HT-29 cells at 10 uM incubated for 15 to 120 mins by Western blotting method; format: cell-based
[21] = tested on: HT-29; experiment: Induction of cell cycle arrest in human HT-29 cells assessed as accumulation at G0/G1 phase at 10 uM incubated for 6 hrs by propidium iodide staining based FACS assay (reference value: 60.39%); format: functional

Chain of Aurora kinase B (Homo sapiens) (Q96GD4 whole entry): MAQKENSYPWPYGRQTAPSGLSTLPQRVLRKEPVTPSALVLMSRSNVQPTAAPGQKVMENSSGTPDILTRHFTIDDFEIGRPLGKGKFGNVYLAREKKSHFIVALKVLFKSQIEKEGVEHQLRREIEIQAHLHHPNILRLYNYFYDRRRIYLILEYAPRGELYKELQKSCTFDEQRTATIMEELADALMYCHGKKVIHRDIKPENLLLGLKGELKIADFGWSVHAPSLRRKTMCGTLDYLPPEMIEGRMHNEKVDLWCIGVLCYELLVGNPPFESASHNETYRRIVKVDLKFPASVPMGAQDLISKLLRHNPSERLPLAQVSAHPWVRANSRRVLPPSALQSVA
Chain of Mitogen-activated protein kinase 9 (Homo sapiens) (P45984 whole entry, looked up): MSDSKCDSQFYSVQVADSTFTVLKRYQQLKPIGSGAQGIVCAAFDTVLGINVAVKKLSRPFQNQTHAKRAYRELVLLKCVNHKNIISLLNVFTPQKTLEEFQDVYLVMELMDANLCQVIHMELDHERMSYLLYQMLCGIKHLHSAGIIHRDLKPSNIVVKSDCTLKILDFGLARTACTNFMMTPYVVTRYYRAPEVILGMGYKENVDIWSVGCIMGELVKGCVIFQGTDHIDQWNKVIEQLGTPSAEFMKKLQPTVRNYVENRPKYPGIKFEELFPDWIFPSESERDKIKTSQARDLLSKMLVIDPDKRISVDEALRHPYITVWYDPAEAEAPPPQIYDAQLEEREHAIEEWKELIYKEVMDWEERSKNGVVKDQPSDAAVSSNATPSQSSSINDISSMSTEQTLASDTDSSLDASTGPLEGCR
Chain of Mitogen-activated protein kinase 8 (Homo sapiens) (P45983 whole entry): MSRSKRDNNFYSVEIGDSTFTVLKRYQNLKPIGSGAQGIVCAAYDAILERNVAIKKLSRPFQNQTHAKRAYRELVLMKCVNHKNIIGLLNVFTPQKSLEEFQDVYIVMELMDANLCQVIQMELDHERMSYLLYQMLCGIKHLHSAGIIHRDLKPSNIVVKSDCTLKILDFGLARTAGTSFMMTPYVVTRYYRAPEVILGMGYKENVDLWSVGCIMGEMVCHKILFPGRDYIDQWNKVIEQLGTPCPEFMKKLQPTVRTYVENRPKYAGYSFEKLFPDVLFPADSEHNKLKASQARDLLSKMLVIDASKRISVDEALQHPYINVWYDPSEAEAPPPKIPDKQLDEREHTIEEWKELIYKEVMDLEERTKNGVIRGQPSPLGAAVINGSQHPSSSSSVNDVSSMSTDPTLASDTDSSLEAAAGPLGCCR

- inhibition [1]: inactive
SMILES: C[C@H]1[C@H](C)CC[C@]2(C)CC[C@]3(C)C(=CC[C@@H]4[C@@]5(C)CC[C@H](O)C(C)(C)[C@@H]5CC[C@]43C)[C@H]12
- inhibition [2]: Active
- inhibition [3]: inactive
- inhibition [4]: Active

- inhibition [1]: inactive
SMILES: CC1(C)CC[C@]2(C(=O)O)CC[C@]3(C)C(=CC[C@@H]4[C@@]5(C)CC[C@H](O)C(C)(C)[C@@H]5CC[C@]43C)[C@@H]2C1
- inhibition [2]: Active
- inhibition [3]: inactive
- inhibition [4]: Active

- inhibition [1]: Active
- inhibition [7]: inactive
- inhibition [9]: Active
- inhibition [11]: Active
- inhibition [13]: Active
- inhibition [19]: Active
- inhibition [20]: Active
SMILES: COc1c2c(cc3oc(C)cc(=O)c13)OC(C(C)(C)O[C@H]1O[C@@H](CO)[C@H](O)[C@@H](O)[C@@H]1O)C2 (stereo partly drawn)
- Activity [5]: 21.86%
- Activity [6]: 1.06%
- Activity [8]: 15.97%
- Activity [10]: Non-toxic
- Activity [12]: 59.07%
- Activity [14]: 16.85%
- inhibition [2]: Active
- Activity [15]: 0.88%
- inhibition [3]: inactive
- inhibition [4]: Active
- Activity [16]: Active
- Activity [17]: Active
- Activity [18]: 22.29%
- Activity [21]: 58.61%

- inhibition [1]: inactive
SMILES: CCCCCCCCCCCCC/C=C1/C(=O)O[C@H](C)[C@@H]1O
- inhibition [2]: Active
- inhibition [3]: inactive
- inhibition [4]: Active
